Key:
[1] = system: Acinetobacter baumannii (ATCC17978); assay: Disk diffusion susceptibility method, Acinetobacter baumannii ATCC17978; format: cell-based; details: disks with 20 μl antibiotic composition, 10 μg colistin or 15 μg Tigecycline, 2 hours at 4° C., then 37° C.
Description: (§1) The antibiotic composition was tested using the disk diffusion susceptibility method previously published by Bauer et al. (Bauer, A. W., et al., “Antibiotic susceptibility testing by a standardized single disk method,” Amer J Clin Pathol 45: pp. 495-496 ([…])). Briefly, a multidrug resistant strain of Acinetobacter baumannii was isolated from patients with Type 2 Diabetes Mellitus in a hospital setting in Saudi Arabia. Whatman No. 1 sterilized-paper disks were saturated with 20 μl of the antibiotic composition. Disks were then dried and placed on the surface of a medium inoculated with either the isolated MDR Acinetobacter baumannii or Acinetobacter baumannii (ATCC17978). A further test was run using either 10 μg colistin or 15 μg Tigecycline as controls. The plates containing the inoculated medium were kept for 2 hours at 4° C. to ensure the diffusion of the bioactive material, and then were incubated at 37° C. Disks containing 30 μl of water were used as a negative control.

[2] = system: multidrug resistant strain of Acinetobacter baumannii; assay: Disk diffusion susceptibility method, MDR Acinetobacter baumannii isolate; format: cell-based; details: isolated MDR strain from patients with Type 2 Diabetes Mellitus; disks with 20 μl antibiotic composition, 10 μg colistin or 15 μg Tigecycline; 2 hours at 4° C., then 37° C.
Description: as §1

Compound	zones of inhibition [1]	zones of inhibition [2]
colistin	not around the traditional antibiotic controls	not around the traditional antibiotic controls
CN(C)c1cc(NC(=O)CNC(C)(C)C)c(O)c2c1C[C@H]1C[C@H]3[C@H](N(C)C)C(O)=C(C(N)=O)C(=O)[C@@]3(O)C(O)=C1C2=O [Tigecycline]	not around the traditional antibiotic controls	not around the traditional antibiotic controls

From patent US12076354B2, “Antibiotic with spirulina platensis and plant extracts” (KING FAISAL UNIVERSITY, priority 2022, dated 2024)
